Among the data in patent publication EP4786487A1, “PEPTIDE” (Peptidream Inc, priority 2023, dated 2025) are Selectivity, IC50 and IC90 values, retold here.

What all share (type): cell-based
In one assay the test system is Myostatin. Briefly: Reporter gene assay for myostatin signaling in HepG2 cell line, Evaluation Procedure (1), myostatin inhibition. The conditions noted are these: Method A; GDF-11 IC50 versus Myostatin IC50. Put shortly: (§1)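 IC50 derived from One-Glo luciferase luminescence after 20–24 h at 37 °C. Peptides titrated 4-fold at 0.006–100 nmol/L against myostatin or 0.12–2000 nmol/L against GDF-11 in HepG2 cells carrying a transfected CAGA12-luciferase reporter, kept in 0.1% BSA EMEM.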

The target of assay [1] is T1, GDF-11 (Homo sapiens, UniProt O95390).
T1 construct: purchased R&D systems 1958-GD-G8/CF
T1 sequence (O95390 299-407): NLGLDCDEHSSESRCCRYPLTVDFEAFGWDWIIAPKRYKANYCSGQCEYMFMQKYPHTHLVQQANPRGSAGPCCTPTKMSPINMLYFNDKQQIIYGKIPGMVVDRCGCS
Description: Reporter gene assay for myostatin signaling in HepG2 cell line, Evaluation Procedure (1), GDF-11 inhibition. The conditions noted are these: Method A: GDF-11 10 ng/mL; read-out: IC50 (Luciferase) GDF-11 HepG2. Put shortly: as §1
In general terms: In a reporter assay the amount or activity of a reporter protein is the signal.

In assay [2] the target is T1, GDF-11. Briefly: Reporter gene assay for myostatin signaling in HEK-Blue TGF-β Cells, GDF-11. The conditions noted are these: GDF-11 3 ng/mL. Here is the method:
(§2) In this Example, the in vitro activity of the peptide Myostatin_99_v145 (SEQ ID NO: 30) was evaluated using a reporter gene assay for myostatin signaling.
(§3) HEK-Blue (trademark) TGF-β Cells (hkb-tgfbv2, InvivoGen) were cultured in DMEM High glucose GlutaMAX (10569010, Thermo) containing 10% FBS (Heat-inactivated FBS QUALIFIED, 10270-106, Gibco), […] Normocin (ant-nr-05, InvivoGen), […] Zeocin (ant-zn-05, InvivoGen), and 50 µg/mL Gentamicin (11980-14, Nacalai Tesque). The cultured HEK-Blue (trademark) TGF-β Cells were suspended in an assay medium containing DMEM High glucose GlutaMAX, 50 µg/mL Gentamicin, and 1% bovine serum albumin (A7030, Sigma). The cells were seeded at 4 × 10^4 cells/well onto a 96-well plate (356461, Corning), namely BioCoat poly-D-lysine multi-well plate, and allowed to stand for 30 min. […]
(§4) To each well of a UV-Star µClear 96-well (655801, Greiner), 180 µL of Detection buffer (prepared by diluting, with 17.64 mL of distilled water, 180 µL of QUANTI-Blue buffer and 180 µL of QUANTI-Blue solution) was dispensed. […] The plate was covered and incubated in a CO2 incubator for 3 to 5 hours, and absorbance was measured (Envision 2104, PerkinElmer, 620 nm/bp 40 nm). Based on the absorbance, IC50 values of the peptide were calculated using software (Prism 9, GraphPad).

The target of a further assay is T2, activin A (Homo sapiens, UniProt P08476).
T2 construct: purchased R&D systems 338-AC-010/CF
T2 sequence (P08476 311-426): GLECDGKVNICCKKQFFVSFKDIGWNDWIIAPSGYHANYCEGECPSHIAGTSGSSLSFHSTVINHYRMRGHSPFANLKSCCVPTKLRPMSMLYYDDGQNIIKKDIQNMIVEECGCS
Briefly: Reporter gene assay for myostatin signaling in HEK-Blue TGF-β Cells, activin A. The conditions noted are these: activin A 3 ng/mL. Here is the method:
as §2, §3, §4

Starred links: 1 amine or outer side, 2 acyl side, 3 side chain; linkers in the order of their positions; H or OH if unused. Positions of bridges follow the written chain, without caps; N, C: chain ends. Non-standard residues stand in square brackets, D forms with d. Residues, ends and D or L forms follow the SMILES beside them. Phe(3-OCH2COOH) = N[C@@H](Cc1cccc(OCC(=O)O)c1)C(=O)O; Phe(4-COOH) = N[C@@H](Cc1ccc(C(=O)O)cc1)C(=O)O; Gly(N(CH2)3COOH) = O=C(O)CCCNCC(=O)O; X1 = CCCCCCC[C@H](N[*:1])C(=O)[*:2]; NMeF = CN[C@@H](Cc1ccccc1)C(=O)O; NMeA = CN[C@@H](C)C(=O)O

In turn, `CCCCCCC[C@@H]1NC(=O)[C@H](Cc2ccccc2)N(C)C(=O)[C@H](CCCNC(=N)N)NC(=O)[C@H](Cc2ccc(C(=O)O)cc2)NC(=O)[C@H](Cc2cccc(OCC(=O)O)c2)NC(=O)[C@H](C)N(C)C(=O)[C@H]([C@@H](C)CC)NC(=O)[C@H](Cc2ccccc2)N(C)C(=O)[C@H](Cc2ccc(O)cc2)NC(=O)[C@H](Cc2c[nH]c3ccccc23)NC(=O)[C@H](C)NC(=O)CN(CCCC(=O)O)C(=O)CSC[C@H](C(=O)O)NC(=O)[C@H](Cc2ccccc2)N(C)C(=O)[C@H](C)N(C)C1=O` [Myostatin_99_v145] ({CH2CO}-[Gly(N(CH2)3COOH)]AWY[NMeF]I[NMeA][Phe(3-OCH2COOH)][Phe(4-COOH)]R[NMeF][X1][NMeA][NMeF][dC]-OH; thioether N-15) yielded a Selectivity in the assay with Myostatin of 259. Besides, the IC50 at GDF-11 [1] was 414 nM; on GDF-11 [2] (read-out: IC50 (nmol/L) GDF11), 61.2 nmol/L; at activin A (read-out: IC50 (nmol/L) Activin A), more than 20000 nmol/L. Besides, the IC90 at GDF-11 [2] (read-out: IC90 (nmol/L) GDF11) was 702 nmol/L; on activin A (read-out: IC90 (nmol/L) Activin A) it was more than 20000 nmol/L.
